# Experimental data published in patent US20040229837A1, “Treatment of neurodegenerative diseases” (priority 2003, published 2004).
# Key:
# wild-type mice [1] = experiment: Number of activated astrocytes, wild-type mice; assay type: in vivo; conditions: chronic CGS treatment
# Procedure: Single antigen immunohistochemistry was carried out by the avidin-biotin-peroxidase complex method as previously described (Liu et al. (1998) FEBS Lett. 436:92-98). In brief, free-floating sections were incubated in the polyclonal anti-GFAP antiserum (1 :1000 dilution, Sigma, St. Louis, Mo., USA) at 4° C. for 36-48 h followed by a biotinconjugated goat anti-rabbit IgG (1:500, Vector Laboratories, Burlingame, Calif., USA) for 2 h, and then with an avidin-biotin-peroxidase complex for 2 h with three rinses of 0.1 M PB in between. Sections were incubated in 0.1 M PB containing 0.02% DAB and 0.08% nickel ammonium sulfate. Immunostaining was developed by adding H2O2 to a final concentration of 0.0024%. […] The pattern of double immunostaining was analyzed with the aid of a laser confocal microscope (Bio-Rad, MRC-1000, Hercules, Calif., USA).
# (§1) Serial-cut coronal tissue sections from the rostral segment of the neostriatum to the level of the anterior commissure (interaural 5.34 mm/bregma 1.54 mm to interaural 3.7 mm/bregma -0.1 mm) were used to define atrophy of the striatum and enlargement of the lateral ventricles. Total areas of the striatum or the lateral ventricles were measured using the software, NIH Image 1.62. Nissl- and GFAP-stained sections were quantified by counting the corresponding types of cells in defined areas of photomicrographs taken using a microscope in phase contrast. […]
# wild-type mice [2] = experiment: Choline/creatine levels after chronic CGS, wild-type mice; assay type: in vivo; conditions: chronic IP-administration of CGS
# Procedure: Animals were anesthetized using chloral hydrate (4.088 mg/10 g, i.p. injection). Measurements were performed on a Biospec 4.7 T spectrometer with an active shielding gradient at 6.9 G/cm in 500 us. Mice were placed in a prone position with a custom-designed head-holder. A 20-cm birdcage coil was used for RF excitation, and a 2-cm-diameter surface coil placed directly over the head was used for signal receiving. The volume of interest (VOI) for ^1H-MRS measurements over the striatum was selected on the basis of coronal diffusion-weighted image using a pulse gradient spin-echo diffusion method with a repetition time (TR) of 1500 ms, an echo time (TE) of 62 ms, a field of view of 3 cm×3 cm, a slice thickness of 1 mm, a b value of 1300 s/mm^2, number averages of 2, a 256 -128 matrix size zero filled to 256 -156. The diffusion-sensitive gradients were applied in the read (×) direction before and after the refocusing pulse. Point-resolved spectroscopy (PRESS) sequence, preceded by three consecutive chemical shift selective saturation (CHESS) pulses for water suppression, was used for localized spectroscopy with a 3.5 ×3.5 ×3.5 mm^3voxel located in the striatum region, a spectral width (sw) of 4000 Hz, a TR of 3.5 s, a TE of 136 ms, signal averages of 256, and total scanning time of 8 min 32 sec. The peak areas of NAA, choline (Cho), and creatine (Cr), were recognized. […]
# R6/2 mice [3] = experiment: Number of glia by Nissl staining, R6/2 mice; assay type: in vivo; conditions: chronic CGS treatment
# Procedure: (§2) Animals were deeply anesthetized with sodium pentobarbital (100 ug/g), and intracardially perfused with 4% paraformaldehyde in 0.1 M phosphate buffer (PB, pH 7.4). Brains were carefully removed, post-fixed with 4% paraformaldehyde/0. 1 M PB for 2-5 h, and then immersed in 30% glycerol in 0.1 M PB. Tissues were cut at 20 um on a freezing microtome (CM3050, Leica Microsystems Nussloch GmbH, Nussloch, Germany).
# Serial-cut coronal tissue sections from the rostral segment of the neostriatum to the level of the anterior commissure (interaural 5.34 mm/bregma 1.54 mm to interaural 3.7 mm/bregma -0.1 mm) were used to define atrophy of the striatum and enlargement of the lateral ventricles. Total areas of the striatum or the lateral ventricles were measured using the software, NIH Image 1.62. Nissl- and GFAP-stained sections were quantified by counting the corresponding types of cells in defined areas of photomicrographs taken using a microscope in phase contrast.
# Alternatively, elevated choline content may reflect a change in cell types. […] The number of glia was determined using the Nissl staining technique. […] The number of astrocytes, the most numerous of glial cells, was also assessed by staining the brain sections using an antibody against an astrocytic marker (glial fibrillary acidic protein, GFAP). […]
# R6/2 mice [4] = experiment: Motor coordination assessed by rotarod performance of R6/2 mice; assay type: in vivo; conditions: CGS treatment
# R6/2 mice [5] = experiment: Number of activated (GFAP-positive) astrocytes by immunohistochemistry, R6/2 mice; assay type: in vivo
# Procedure: as §2
# Single antigen immunohistochemistry was carried out by the avidin-biotin-peroxidase complex method as previously described (Liu et al. (1998) FEBS Lett. 436:92-98). […] The pattern of double immunostaining was analyzed with the aid of a laser confocal microscope (Bio-Rad, MRC-1000, Hercules, Calif., USA).
# as §1
# rats = conditions: low dosage, Popoli et al. (2002); cited from earlier work
# R6/2 mice [6] = experiment: Locomotor activity of R6/2 mice; assay type: in vivo; conditions: ZM241385 7.5 ug/g given with CGS
compound,measurement,setting,value
CCNC(=O)[C@H]1O[C@@H](n2cnc3c(N)nc(NCCc4ccc(CCC(=O)O)cc4)nc32)[C@H](O)[C@@H]1O [CGS],number of activated astrocytes,wild-type mice [1],not affected
same,changes in choline/creatine levels,wild-type mice [2],no detectable changes
same,number of glial cells,R6/2 mice [3],did not affect
same,motor coordination assessed by rotarod performance,R6/2 mice [4],not affected
same,enhancement of the number of activated astrocytes,"R6/2 mice [5]; R6/2 mice, chronic CGS treatment, in the striatum and in the cortex",8 fold
Nc1nc2c(cnn2CCc2ccccc2)c2nc(-c3ccco3)nn12 [SCH58261],QA-induced excitotoxicity,rats,reduced QA-induced excitotoxicity
Nc1nc(NCCc2ccc(O)cc2)nc2nc(-c3ccco3)nn12 [ZM241385],"ameliorating effect of CGS on locomotor activity, blockade by antagonist",R6/2 mice [6],could be blocked
same,number of activated astrocytes in the striatum,"R6/2 mice [5]; R6/2 mice treated with ZM and CGS simultaneously, n=4",43±8 /mm^2
